Where two headings read alike, the source gives them in different places.
Experiments:
Format in all cases: biochemical
ROCK1 = target: T1, ROCK1 (Homo sapiens, UniProt Q13464); assay: Rho kinase inhibition assay (IMAP fluorescence polarization), ROCK1;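 also: kinase reaction run 60 min at room temperature, then phosphorylated substrate captured on IMAP beads for 30 min, with fluorescence polarization read in mP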
T1 construct: purchased Upstate/Chemicon 14-601
Method: (§1) Following the pre-incubation, 10 μM ATP was added to initiate the reaction. After 60 minutes at room temperature, Molecular Devices IMAP™ binding solution was added to bind phosphorylated substrate. After 30 minutes of incubation in the presence of the IMAP™ beads, the fluorescence polarization was read and the ratio was reported as mP. IC50 values for compounds and EC50 values for ATP were calculated using the Prism software from Graphpad.

ROCK2 = target: T2, ROCK2 (Homo sapiens, UniProt O75116); assay: Rho kinase inhibition assay (IMAP fluorescence polarization), ROCK2;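 also: kinase reaction started with 10 µM ATP and run 60 min at room temperature, then phosphorylated substrate captured on IMAP beads for 30 min and fluorescence polarization read in mP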
T2 construct: purchased Upstate/Chemicon 14-451
T2 sequence (O75116 11-552 limits assumed): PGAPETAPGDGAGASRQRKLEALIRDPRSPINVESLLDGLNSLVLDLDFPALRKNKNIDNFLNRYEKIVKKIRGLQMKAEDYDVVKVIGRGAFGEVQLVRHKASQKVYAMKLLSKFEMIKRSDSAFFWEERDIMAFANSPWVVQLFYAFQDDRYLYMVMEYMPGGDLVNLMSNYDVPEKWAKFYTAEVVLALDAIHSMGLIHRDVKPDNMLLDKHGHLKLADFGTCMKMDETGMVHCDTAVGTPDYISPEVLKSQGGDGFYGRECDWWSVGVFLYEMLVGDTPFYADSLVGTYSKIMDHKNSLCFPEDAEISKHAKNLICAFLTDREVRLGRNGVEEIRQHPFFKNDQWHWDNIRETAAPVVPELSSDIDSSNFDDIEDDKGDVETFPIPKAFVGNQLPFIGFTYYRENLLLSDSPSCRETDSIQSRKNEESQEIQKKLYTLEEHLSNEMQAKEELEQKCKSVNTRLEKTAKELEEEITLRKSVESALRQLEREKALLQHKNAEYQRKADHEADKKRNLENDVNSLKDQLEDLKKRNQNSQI
Method: as §1

Akt3 human enzyme = target: T3, Akt3 human enzyme (Homo sapiens, UniProt Q9Y243); assay: Akt3 inhibition assay (IMAP FP); conditions: 30 μM ATP; Ki=IC50/(1+([ATP Challenge]/EC50 ATP)); read-out: Akt3 Ki, Avg;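 also: kinase reaction run 60 min at room temperature after 30 µM ATP start, phosphorylated substrate captured on IMAP beads and read as fluorescence polarization (mP)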
T3 construct: purchased Upstate Chemicon 14-502
T3 sequence (Q9Y243 whole entry): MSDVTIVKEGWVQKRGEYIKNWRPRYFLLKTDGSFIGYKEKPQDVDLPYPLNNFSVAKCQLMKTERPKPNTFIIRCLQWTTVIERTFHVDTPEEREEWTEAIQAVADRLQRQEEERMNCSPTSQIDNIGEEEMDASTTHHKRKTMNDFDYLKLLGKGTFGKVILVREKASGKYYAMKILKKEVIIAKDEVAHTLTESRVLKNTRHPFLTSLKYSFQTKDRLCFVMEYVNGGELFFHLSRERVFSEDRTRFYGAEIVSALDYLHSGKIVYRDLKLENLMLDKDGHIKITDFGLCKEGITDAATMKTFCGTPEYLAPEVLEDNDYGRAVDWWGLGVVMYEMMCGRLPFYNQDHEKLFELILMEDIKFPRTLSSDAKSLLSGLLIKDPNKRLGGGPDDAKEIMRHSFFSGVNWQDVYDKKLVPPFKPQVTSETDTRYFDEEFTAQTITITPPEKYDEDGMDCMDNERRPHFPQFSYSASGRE

p70S6K human enzyme = target: T4, p70S6K human enzyme (Homo sapiens, UniProt P23443, T412E); assay: p70S6K inhibition assay (IMAP FP); conditions: 30 μM ATP; Ki=IC50/(1+([ATP Challenge]/EC50 ATP)); read-out: p70S6K Ki, Avg;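 also: kinase reaction run at room temperature, phosphorylated substrate captured on IMAP beads and read as fluorescence polarization in mP, IC50 then converted to Ki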
T4 construct: purchased Upstate Chemicon 14-486
T4 sequence (P23443 1-421 T412E limits assumed): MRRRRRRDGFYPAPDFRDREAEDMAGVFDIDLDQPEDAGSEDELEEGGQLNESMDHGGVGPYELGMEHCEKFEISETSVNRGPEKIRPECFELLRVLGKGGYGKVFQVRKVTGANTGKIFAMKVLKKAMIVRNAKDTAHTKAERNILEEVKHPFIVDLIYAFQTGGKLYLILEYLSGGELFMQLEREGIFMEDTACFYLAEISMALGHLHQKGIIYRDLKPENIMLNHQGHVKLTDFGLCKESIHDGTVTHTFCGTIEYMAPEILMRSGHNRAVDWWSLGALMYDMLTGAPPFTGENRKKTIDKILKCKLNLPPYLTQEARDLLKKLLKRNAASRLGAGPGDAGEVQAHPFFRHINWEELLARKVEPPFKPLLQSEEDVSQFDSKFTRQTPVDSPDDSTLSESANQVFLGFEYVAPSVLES
Method: Inhibition of Akt3 and p70S6K activity was determined using the IMAP™ FP Progressive Binding Kit (Molecular Devices product number R8127). […] Following the pre-incubation, 30 μM ATP was added to initiate the reaction. After 60 minutes at RT, Molecular Devices IMAP™ binding solution was added to bind phosphorylated substrate. After 30 minutes of incubation in the presence of the IMAP™ beads the fluorescence polarization was read and the ratio was reported as mP. IC50 results were calculated using the Prism software from Graphpad. The Ki values were determined according to the following formula: Ki=IC50/(1+([ATP Challenge]/EC50 ATP)).

[1] = 10 μM ATP, read-out: ROCK2 Ki, Avg

T1 sequence (Q13464 17-535 limits assumed): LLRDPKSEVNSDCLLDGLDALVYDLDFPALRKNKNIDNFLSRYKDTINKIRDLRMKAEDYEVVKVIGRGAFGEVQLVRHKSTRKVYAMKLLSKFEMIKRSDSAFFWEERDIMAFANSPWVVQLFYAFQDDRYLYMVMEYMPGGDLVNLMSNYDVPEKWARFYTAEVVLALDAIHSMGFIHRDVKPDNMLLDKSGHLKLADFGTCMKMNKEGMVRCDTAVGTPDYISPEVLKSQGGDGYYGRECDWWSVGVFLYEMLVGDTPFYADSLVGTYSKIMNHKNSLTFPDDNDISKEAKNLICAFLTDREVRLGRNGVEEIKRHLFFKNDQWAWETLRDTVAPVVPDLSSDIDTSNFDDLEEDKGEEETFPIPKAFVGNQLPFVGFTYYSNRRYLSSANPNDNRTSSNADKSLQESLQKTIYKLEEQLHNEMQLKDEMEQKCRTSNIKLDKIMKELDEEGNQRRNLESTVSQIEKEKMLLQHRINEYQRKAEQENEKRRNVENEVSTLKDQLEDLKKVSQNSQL

SMILES | Ki (ROCK1; Avg, 10 μM ATP) | Ki (ROCK2; [1]) | Ki (Akt3 human enzyme) | Ki (p70S6K human enzyme) | Ki (ROCK1; average Ki) | Ki (ROCK2; average Ki, read-out: ROCK2 Ki)
Fc1ccc(CN2CCC[C@H](Nc3ccc4[nH]ncc4c3)C2)cc1F [Compound 1.072, (S)-N-(1-(3,4-difluorobenzyl)piperidin-3-yl)-1H-indazol-5-amine] | 33.7 nM | 5.6 nM | 4750 nM | 1130 nM |  | 
Brc1ccc(CN2CCC[C@H](Nc3ccc4[nH]ncc4c3)C2)cc1 [Compound 1.142, (S)-N-(1-(4-bromobenzyl)piperidin-3-yl)-1H-indazoi-5-amine] | 104 nM | 12 nM | 8270 nM | 2520 nM |  | 
CCc1ccc(CN2CCC[C@H](Nc3ccc4[nH]ncc4c3)C2)cc1 [Compound 1.154, (S)-N-(1-(4-ethylbenzyl)piperidin-3-yl)-1H-indazol-5-amine] | 52.7 nM | 6.6 nM | 4950 nM | 1130 nM |  | 
c1cc2c(cc1CN1CCC[C@@H](Nc3ccc4[nH]ncc4c3)C1)CCO2 [Compound 1.246, (R)-N-(1-((2,3-dihydrobenzofuran-5-yl)methyl)piperidin-3-yl)-1H-indazol-5-amine] | 92.1 nM | 11.2 nM | 1100 nM | 1880 nM |  | 
c1ccc(CN2CCC[C@H](Nc3ccc4[nH]ncc4c3)C2)cc1 [Compound 1.227, (S)-N-(1-benzylpiperidin-3-yl)-1H-indazol-5-amine] | 47.5 nM | 5.3 nM | 3480 nM | 1580 nM |  | 
Oc1cccc(CN2CCC[C@@H](Nc3ccc4[nH]ncc4c3)C2)c1 [Compound 1.145, (R)-3-((3-(1H-indazol-5-ylamino)piperidin-1-yl)methyl)phenol] | 35 nM | 6.4 nM | 1190 nM | 2300 nM |  | 
Brc1cccc(CN2CCC[C@H](Nc3ccc4[nH]ncc4c3)C2)c1 [Compound 1.183, (S)-N-(1-(3-bromobenzyl)piperidin-3-yl)-1H-indazol-5-amine] | 165 nM | 16.8 nM | 9010 nM | 2480 nM |  | 
C=Cc1ccc(CN2CCC[C@H](Nc3ccc4[nH]ncc4c3)C2)cc1 [Compound 1.229, (S)-N-(1-(4-vinylbenzyl)piperidin-3-yl)-1H-indazol-5-amine] | 121 nM | 18.4 nM | 24600 nM | 3130 nM |  | 
NC(=O)Cn1ccc2ccc(CN3CCC[C@@H](Nc4ccc5[nH]ncc5c4)C3)cc21 [Compound 1.106, (R)-2-(6-((3-(1H-indazol-5-ylamino)piperidin-1-yl)methyl)-1H-indol-1-yl)acetamide] | 223 nM | 15.1 nM | 3910 nM | 1330 nM |  | 
Clc1cccc(CN2CCC[C@H](Nc3ccc4[nH]ncc4c3)C2)c1 [Compound 1.170, (S)-N-(1-(3-chlorobenzyl)piperidin-3-yl)-1H-indazol-5-amine] | 80 nM | 12.5 nM | 7810 nM | 2050 nM |  | 
Clc1ccc(CN2CC[C@@H](Nc3cccc4cnccc34)C2)cc1Cl [Compound 2.048, (R)-N-(1-(3,4-dichlorobenzyl)pyrrolidin-3-yl)isoquinolin-5-amine] | 71.5 nM | 34.6 nM |  |  |  | 
NC(=O)c1cccc(CN2CCC[C@@H](Nc3ccc4[nH]ncc4c3)C2)c1 [Compound 1.221, (R)-3-((3-(1H-indazol-5-ylamino)piperidin-1-yl)methyl)benzamide] | 264 nM | 30 nM |  |  |  | 
CS(=O)(=O)c1ccc(CN2CC[C@@H](Nc3ccc4[nH]ncc4c3)C2)cc1 [Compound 1.244, (R)-N-(1-(4-(methylsulfonyl)benzyl)pyrrolidin-3-yl)-1H-indazol-5-amine] | 683 nM | 139 nM |  |  |  | 
CS(=O)(=O)c1ccc(CN2CCC[C@H](Nc3ccc4[nH]ncc4c3)C2)cc1 [Compound 1.181, (S)-N-(1-(4-(methylsulfonyl)benzyl)piperidin-3-yl)-1H-indazol-5-amine] | 568 nM | 32.8 nM |  |  |  | 
c1cc(N[C@@H]2CCN(Cc3ccsc3)C2)c2ccncc2c1 [Compound 2.088, (R)-N-(1-(thiophen-3-ylmethyl)pyrrolidin-3-yl)isoquinolin-5-amine] | 38.7 nM | 13.6 nM |  |  |  | 
OCc1ccc(CN2CCC[C@@H](Nc3ccc4[nH]ncc4c3)C2)cc1 [Compound 1.232, (R)-(4-((3-(1H-indazol-5-ylamino)piperidin-1-yl)methyl)phenyl)methanol] | 137 nM | 20.8 nM |  |  |  | 
FC(F)(F)c1cccc(CN2CCC[C@H](Nc3ccc4[nH]ncc4c3)C2)c1 [Compound 1.169, (S)-N-(1-(3-(trifluoromethyl)benzyl)piperidin-3-yl)-1H-indazol-5-amine] | 256 nM | 33.8 nM |  |  |  | 
Cc1cccc(CN2CCC[C@@H](Nc3ccc4[nH]ncc4c3)C2)c1 [Compound 1.192, (R)-N-(1-(3-methylbenzyl)piperidin-3-yl)-1H-indazol-5-amine] | 158 nM | 37.7 nM |  |  |  | 

SMILES | Ki (ROCK1; Avg, 10 μM ATP) | Ki (ROCK2; [1]) | Ki (Akt3 human enzyme) | Ki (p70S6K human enzyme) | Ki (ROCK1; average Ki) | Ki (ROCK2; average Ki, read-out: ROCK2 Ki)
O=C(OCCOc1cccc(CN2CCC[C@H](Nc3ccc4[nH]ncc4c3)C2)c1)c1ccccc1 [Compound 1.224, (S)-2-(3-((3-(1H-indazol-5-ylamino)piperidin-1-yl)methyl)phenoxy)ethyl benzoate] | 487 nM | 77.5 nM |  |  |  | 
Clc1ccc(CN2CCC[C@@H](Nc3ccc4[nH]ncc4c3)C2)cc1Cl [Compound 1.144, (R)-N-(1-(3,4-dichlorobenzyl)piperidin-3-yl)-1H-indazol-5-amine] | 97.6 nM | 19.5 nM |  |  |  | 
CC(C)(C)OC(=O)NCc1cccc(CN2CCC[C@@H](Nc3ccc4[nH]ncc4c3)C2)c1 [Compound 1.140, (R)-tert-butyl 3-((3-(1H-indazol-5-ylamino)piperidin-1-yl)methyl)benzylcarbamate] | 236 nM | 32.9 nM |  |  |  | 
CS(=O)(=O)c1cccc(CN2CCC[C@H](Nc3ccc4[nH]ncc4c3)C2)c1 [Compound 1.182, (S)-N-(1-(3-(methylsulfonyl)benzyl)piperidin-3-yl)-1H-indazol-5-amine] | 408 nM | 30.6 nM |  |  |  | 
Cc1c(CN2CC[C@@H](Nc3cccc4cnccc34)C2)cccc1NS(C)(=O)=O [Compound 2.078, (R)-N-(3-((3-(isoquinolin-5-ylamino)pyrrolidin-1-yl)methyl)-2-methylphenyl)methanesulfonamide] | 18.3 nM | 2.6 nM |  |  | 18.3 nM | 2.6 nM
CN(c1cccc(CN2CCC[C@H](Nc3ccc4[nH]ncc4c3)C2)c1)S(C)(=O)=O [Compound 1.198, (S)-N-(3-((3-(1H-indazol-5-ylamino)piperidin-1-yl)methyl)phenyl)-N-methylmethanesulfonamide] | 585 nM | 24.7 nM |  |  |  | 
CCOC(=O)c1ccc(CN2CCC[C@H](Nc3ccc4[nH]ncc4c3)C2)cc1 [Compound 1.216, (S)-ethyl 4-((3-(1H-indazol-5-ylamino)piperidin-1-yl)methyl)benzoate] | 1890 nM | 403 nM |  |  |  | 
COc1ccc(CN2CC[C@@H](Nc3cccc4cnccc34)C2)cc1OCCO [Compound 2.067, (R)-2-(5-((3-(isoquinolin-5-ylamino)pyrrolidin-1-yl)methyl)-2-methoxyphenoxy)ethanol] | 19.6 nM | 4.2 nM |  |  | 19.6 nM | 4.2 nM
COc1ccc(CN2CC[C@@H](Nc3cccc4cnccc34)C2)cc1NS(C)(=O)=O [Compound 2.098, (R)-N-(5-((3-(isoquinolin-5-ylamino)pyrrolidin-1-yl)methyl)-2-methoxyphenyl)methanesulfonamide] | 382 nM | 73.5 nM |  |  |  | 
O=[N+]([O-])c1cc(CN2CC[C@@H](Nc3cccc4cnccc34)C2)cs1 [Compound 2.089, (R)-N-(1-((5-nitrothiophen-3-yl)methyl)pyrrolidin-3-yl)isoquinolin-5-amine] | 102 nM | 32.9 nM |  |  |  | 
Cc1ccc(CN2CCC[C@H](Nc3ccc4[nH]ncc4c3)C2)cc1OCC(=O)O [Compound 1.240] | 625 nM | 60.1 nM |  |  |  | 
Clc1ccc(CN2CC[C@@H](Nc3ccc4[nH]ncc4c3)C2)cc1Cl [Compound 1.254, (R)-N-(1-(3,4-dichlorobenzyl)pyrrolidin-3-yl)-1H-indazol-5-amine] | 116 nM | 39 nM |  |  |  | 
CCOc1cccc(CN2CCC[C@H](Nc3ccc4[nH]ncc4c3)C2)c1 [Compound 1.179, (S)-N-(1-(3-ethoxybenzyl)piperidin-3-yl)-1H-indazol-5-amine] | 292 nM | 19.3 nM |  |  |  | 
[O-][n+]1ccc2c(N[C@@H]3CCN(Cc4cccc(OCCO)c4)C3)cccc2c1 [Compound 2.081, (R)-5-(1-(3-(2-hydroxyethoxy)benzyl)pyrrolidin-3-ylamino)isoquinoline 2-oxide] | 1450 nM | 1110 nM |  |  |  | 
CCSc1ccc(CN2CCC[C@H](Nc3ccc4[nH]ncc4c3)C2)cc1 [Compound 1.168, (S)-N-(1-(4-(ethylthio)benzyl)piperidin-3-yl)-1H-indazol-5-amine] | 162 nM | 22.9 nM |  |  |  | 
c1cc2c(cc1CN1CCC[C@@H](Nc3ccc4[nH]ncc4c3)C1)OCCO2 [Compound 1.177, (R)-N-(1-((2,3-dihydrobenzo[b][1,4]dioxin-6-yl)methyl)piperidin-3-yl)-1H-indazol-5-amine] | 156 nM | 18.2 nM |  |  |  | 
OCCn1cc(CN2CCC[C@@H](Nc3ccc4[nH]ncc4c3)C2)c2ccccc21 [Compound 1.273, (R)-2-(3-((3-(1H-indazol-5-ylamino)piperidin-1-yl)methyl)-1H-indol-1-yl)ethanol] | 31.3 nM | 8.2 nM |  |  | 31.3 nM | 8.2 nM

From patent US20090325959A1 (priority 2008, published 2009)
